# System: tetO-CMV promoter
# Assay: Luciferase activity in electroporated HeLa-16 cells treated with desferrioxamine, cobaltous chloride or 2-2′-dipyridyl
# Type: cell-based
# Details: HeLa-16 cells electroporated with pTHV, 24 hours
# Method: HeLa cells were maintained in Dulbecco Modified Medium with Glutamax (Gibco) supplemented with 10% fetal calf serum. For transfection, 5×10e6 HeLa cells were electroporated with a Gene Pulser (Biorad) at 200 V, 960 microfarads in the presence of 25 μg of each plasmid, NaCl 3M in 50 microliters. For control experiments a Bluescript pBSK+ was electroporated instead of the plasmid of interest. Each suspension of cells was then split in aliquots and incubated either in medium alone or in medium supplemented with doxycycline (1 μg/ml), cobaltous chloride (100 μM), desferrioxamine (Def) (130 μM), 2-2′-dipyridyl (DP) (100 μM) or the MG132 proteasome inhibiteur (2.5 μM). For hypoxic conditions cells were placed at 37° C. in a closed chamber with 1% oxygen, 5% CO2 and 94% N2 (Air Liquide).
# Electroporated cells were trypsinized and the pellet was lysed in 200 μl LB buffer (Tris Phosphate pH 7.8 25 mM, MgCl2 8 mM, dithiothreitol 1 mM, Triton×100 1%, glycerol 15%). The lysat was then centrifugated at 4° C., the supernatant was collected and luciferase activity was measured using a luminometer (Lumat LB 9501, Berthold). Results were expressed as relative luciferase activity per mg of cell lysates protein. Protein concentration determination was performed with the BCA Protein Assay Kit (Pierce).
# The reporter plasmid encoded for a luciferase gene inserted downstream of a minimal CMV promoter that contains seven binding sites for the E.Coli tetracycline repressor (tetO-CMV)(20). HeLa cells were stably transfected with this vector and one clone named HeLa-16 was used in all transient transfection assays.
# HeLa-16 cells were electroporated with each pTHV or pTV. After electroporation cells were split into aliquots, and exposed in parallel to 21% O2, 1% O2, 2,2′-dipyridyl (DP), desferrioxamine (Def), cobaltous chloride (Co) or MG132. Luciferase activities were measured 24 hours later and normalised as RLU (relative light unit) per mg of proteins.
row,Compound,effectiveness of the chemical in inducing transactivation by pTHV
1,CC(=O)N(O)CCCCCNC(=O)CCC(=O)N(O)CCCCCNC(=O)CCC(=O)N(O)CCCCCN [desferrioxamine],lower than with DP
2,"[Cl-].[Cl-].[Co+2] [cobalt, cobaltous chloride]",lower than with DP
3,"c1ccc(-c2ccccn2)nc1 [DP, 2-2′-dipyridyl]",most effective

# Source: US20040018606A1, “Control of protein systemic delivery by hypoxia using a tet-HIF1-alpha chimeric transactivator” (priority 2002, published 2004)
